Measured values from patent US20230113609A1, “SSTR5 ANTAGONISTS” (Kallyope, Inc., priority 2019, published 2023).

Target: T1, human SSTR5 (Homo sapiens, UniProt P35346)
T1 construct: expressed in transfected cells
Assay: Inositol phosphate accumulation assay (IP1 HTRF, antagonist mode)
Format: cell-based
Settings: CHO-K1 cells co-expressing human SSTR5 with Gqi5, SST28 agonist at concentration generating 90% of full activation
Text: CHO-K1 cells stably co-expressing human SSTR5 with Gqi5 were developed using Jump-In technology from Thermo-Fisher. Gqi5 is the mouse G alpha q protein, that was modified to interact with Gi-coupled GPCRs as described previously (Coward, P.; Chan, S. D.; Wada, H. G.; Humphries, G. M.; Conklin, B. R. Chimeric G proteins Allow a High-Throughput Signaling Assay of Gi-Coupled Receptors. Anal Biochem. 1999, 270(2),242-248).
Co-expression of Gqi5 with SSTR5 allowed monitoring of SSTR5 activity by following IP1 accumulation. The assay was performed in a 384-well plate format using the IP1 assay kit from Cis-Bio in an antagonist mode, i.e., pre-incubation with antagonist following by receptor activation by agonist at a concentration generating 90% of full activation. Frozen cells expressing human SSTR5 were thawed, washed, and then plated in DMEM supplemented with 10% FBS and non-essential amino acids. 40 μL of 2.5×10^5 cells/mL were plated on a Poly D-Lysine coated 384-well white plate. The cells were then incubated for 16 hr. at 37° C/5% CO2. After 16 hour the medium was removed, and 10 μL of stimulation buffer was added to the cells. Test compounds were dissolved in DMSO at concentrations 2000-fold that of the final assay concentrations. 7.5 nLcompound solutions were transferred to the cell plates using a Labcyte Echo® acoustic liquid handler. The plates were then incubated for 15 minutes at 37° C/5%CO2. After the first incubation, 5 μL of 30 nM SST28 were added to the cells, and the cells were incubated for 90 minutes at 37° C/5%CO2. 5 μL of detection buffer (prepared as described in the IP-1 kit) was added to each well, and the plates were incubated at RT for 1 hour.
TR-FRET was measured using a ClarioSTAR plate reader, calculating the ratio between emissions at 665 nm and 620 nm (HTRF ratio). The HTRF ratio for positive (Max) and negative (Min) controls were used to normalize HTRF data and generate values for % inhibition. IC50 and maximal inhibition values were determined using a standard 4-parameter fit.

T1 sequence (P35346 whole entry): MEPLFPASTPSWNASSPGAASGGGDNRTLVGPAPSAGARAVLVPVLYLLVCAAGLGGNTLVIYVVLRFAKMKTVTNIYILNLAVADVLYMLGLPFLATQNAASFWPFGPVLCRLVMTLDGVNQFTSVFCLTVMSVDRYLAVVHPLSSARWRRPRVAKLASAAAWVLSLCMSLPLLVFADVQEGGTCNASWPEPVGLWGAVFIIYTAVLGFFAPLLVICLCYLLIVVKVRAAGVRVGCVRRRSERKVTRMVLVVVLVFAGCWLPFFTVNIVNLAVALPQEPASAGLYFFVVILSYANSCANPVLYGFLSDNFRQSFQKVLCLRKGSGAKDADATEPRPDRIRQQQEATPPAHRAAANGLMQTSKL

SMILES | IC50 [nM]
CCOc1cc(C(=O)OC)c(C2CC2)cc1CN1CCC2(CC1)CC(=O)N(c1ccc(C(=O)NCCCS(N)(=O)=O)cc1)C2 [Example 44, methyl 2-cyclopropyl-5-ethoxy-4-((3-oxo-2-(4-((3-sulfamoylpropyl)carbamoyl)phenyl)-2,8-diazaspiro[4.5]decan-8-yl)methyl)benzoate] | 100 to 1000
CCOc1cc(C(=O)OC)c(C2CC2)cc1CN1CCC2(CC1)CC(=O)N(c1ccc(C(=O)NCCCN)cc1)C2 [Example 46, methyl 4-((2-(4-((3-aminopropyl)carbamoyl)phenyl)-3-oxo-2,8-diazaspiro[4.5]decan-8-yl)methyl)-2-cyclopropyl-5-ethoxybenzoate] | > 5000
CCOc1cc(C#N)c(C2CC2)cc1CN1CCN(C(=O)Oc2ccc(C(=O)NCCCC(=O)NCCO)cc2)CC1 [compound 95, [4-[[4-(2-hydroxyethylamino)-4-oxo-butyl]carbamoyl]phenyl]4-[(4-cyano-5-cyclopropyl-2-ethoxy-phenyl)methyl]piperazine-1-carboxylate] | > 5000
CCOc1cc(C(=O)OC)c(C2CC2)cc1CN1CCC2(CC1)CC(=O)N(c1ccc(C(=O)NC(CO)(CO)CO)cc1)C2 [Example 21, methyl 2-cyclopropyl-4-((2-(4-((1,3-dihydroxy-2-(hydroxymethyl)propan-2-yl)carbamoyl)phenyl)-3-oxo-2,8-diazaspiro[4.5]decan-8-yl)methyl)-5-ethoxybenzoate] | > 5000
CCOc1cc(C(=O)OC)c(C2CC2)cc1CN1CCC2(CC1)CC(=O)N(c1ccc(C(=O)NCCCC(=O)O)cc1)C2 [Example 23, 4-(4-(8-(5-cyclopropyl-2-ethoxy-4-(methoxycarbonyl)benzyl)-3-oxo-2,8-diazaspiro[4.5]decan-2-yl)benzamido) butanoic acid] | > 5000
CCOc1cc(C(=O)OC)c(C2CC2)cc1CN1CCC2(CC1)CC(=O)N(c1ccc(C(=O)NCC[N+](C)(C)C)cc1)C2 [Example 22, 2-(4-(8-(5-cyclopropyl-2-ethoxy-4-(methoxycarbonyl)benzyl)-3-oxo-2,8-diazaspiro[4.5]decan-2-yl)benzamido)-N,N,N-trimethylethan-1-aminium] | 1000 to 5000
CCOc1cc(C(=O)OC)c(C2CC2)cc1CN1CCC2(CC1)CC(=O)N(c1ccc(C(=O)NCCCP(C)(=O)O)cc1)C2 [Example 33, (3-(4-(8-(5-cyclopropyl-2-ethoxy-4-(methoxycarbonyl)benzyl)-3-oxo-2,8-diazaspiro[4.5]decan-2-yl)benzamido)propyl)(methyl)phosphinic acid] | > 5000
CCOc1cc(CN2CCC3(CC2)CN(c2ccc(C(=O)NCCC[N+](C)(C)C)cc2)C(=O)O3)cc(OCC)c1-c1ccc(F)cc1 [Example 6, 3-(4-(8-((2,6-diethoxy-4′-fluoro-[1,1′-biphenyl]-4-yl)methyl)-2-oxo-1-oxa-3,8-diazaspiro[4.5]decan-3-yl)benzamido)-N,N,N-trimethylpropan-1-aminium] | 100 to 1000
CCOc1cc(C(=O)OC)c(C2CC2)cc1CN1CCC2(CC1)CC(=O)N(c1ccc(CC(=O)NCCNC(=O)NC(CO)(CO)CO)cc1)C2 [Example 14, methyl 2-cyclopropyl-4-((2-(4-(2-((2-(3-(1,3-dihydroxy-2-(hydroxymethyl)propan-2-yl)ureido)ethyl)amino)-2-oxoethyl)phenyl)-3-oxo-2,8-diazaspiro[4.5]decan-8-yl)methyl)-5-ethoxy benzoate] | > 5000
CCOc1cc(CN2CCC3(CC2)CN(c2ccc(C(=O)NC[C@H](O)[C@@H](O)[C@H](O)[C@H](O)CO)cc2)C(=O)O3)cc(CO)c1-c1ccc(F)cc1 [Example 3, 4-(8-((2-ethoxy-4′-fluoro-6-(hydroxymethyl)-[1,1′-biphenyl]-4-yl)methyl)-2-oxo-1-oxa-3,8-diazaspiro[4.5]decan-3-yl)-N-((2S,3R,4R,5R)-2,3,4,5,6-pentahydroxyhexyl)benzamide] | > 5000
CCOc1cc(C(=O)OC)c(C2CC2)cc1CN1CCC2(CC1)CC(=O)N(c1ccc(C(=O)NCCC[N+](C)(C)C)cc1)C2 [Example 28, 3-(4-(8-(5-cyclopropyl-2-ethoxy-4-(methoxycarbonyl)benzyl)-3-oxo-2,8-diazaspiro[4.5]decan-2-yl)benzamido)-N,N,N-trimethylpropan-1-aminium] | > 5000
CCOc1cc(C(=O)OC)c(C2CC2)cc1CN1CCC2(CC1)CC(=O)N(c1ccc(C(=O)NCCS(=O)(=O)O)cc1)C2 [Example 29, 2-(4-(8-(5-cyclopropyl-2-ethoxy-4-(methoxycarbonyl)benzyl)-3-oxo-2,8-diazaspiro[4.5]decan-2-yl)benzamido)ethane-1-sulfonic acid] | 100 to 1000

Continued, values first:

IC50 [nM] | SMILES
≤ 100 | CCOc1cc(-c2ccc(F)cc2)c(C2CC2)cc1CN1CCC2(CC1)CN(c1ccc(C(=O)NCCOCCOCCO)cc1)C(=O)N2 [Example 70, 4-(8-((2-cyclopropyl-5-ethoxy-4′-fluoro-[1,1′-biphenyl]-4-yl)methyl)-2-oxo-1,3,8-triazaspiro[4.5]decan-3-yl)-N-(2-(2-(2-hydroxyethoxy)ethoxy)ethyl)benzamide]
≤ 100 | CCOc1cc(-c2ccc(F)cn2)c(C2CC2)cc1CN1CCC2(CC1)CN(c1ccc(C(=O)NCCOCCO)cc1)C(=O)N2 [Example 74, 4-(8-(5-cyclopropyl-2-ethoxy-4-(5-fluoropyridin-2-yl)benzyl)-2-oxo-1,3,8-triazaspiro[4.5]decan-3-yl)-N-(2-(2-hydroxyethoxy)ethyl)benzamide]
100 to 1000 | CCOc1cc(C(=O)OC)c(C2CC2)cc1CN1CCC2(CC1)CN(c1ccc(C(=O)NCCOCCO)cc1)C(=O)N2 [Example 76, methyl 2-cyclopropyl-5-ethoxy-4-((3-(4-((2-(2-hydroxyethoxy)ethyl)carbamoyl)phenyl)-2-oxo-1,3,8-triazaspiro[4.5]decan-8-yl)methyl)benzoate]
≤ 100 | CCOc1cc(C(=O)OC)c(C2CC2)cc1CN1CCC2(CC1)CN(c1ccc(C(=O)NCCCNC(N)=O)cc1)C(=O)O2 [Example 57, methyl 2-cyclopropyl-5-ethoxy-4-((2-oxo-3-(4-((3-ureidopropyl)carbamoyl)phenyl)-1-oxa-3,8-diazaspiro [4.5]decan-8-yl)methyl)benzoate]
100 to 1000 | CCOc1cc(C(=O)OC)c(C2CC2)cc1CN1CCC2(CC1)CC(=O)N(c1ccc(C(=O)N3CCC(S(N)(=O)=O)CC3)cc1)C2 [Example 52, methyl 2-cyclopropyl-5-ethoxy-4-((3-oxo-2-(4-(4-sulfamoylpiperidine-1-carbonyl)phenyl)-2,8-diazaspiro[4.5]decan-8-yl)methyl)benzoate]
≤ 100 | CCOc1cc(-c2ccc(F)cc2)c(C2CC2)cc1CN1CCC2(CC1)CN(c1ccc(C(=O)NCCOC(CO)CO)cc1)C(=O)N2 [Example 73, 4-(8-((2-cyclopropyl-5-ethoxy-4′-fluoro-[1,1′-biphenyl]-4-yl)methyl)-2-oxo-1,3,8-triazaspiro[4.5]decan-3-yl)-N-(2-((1,3-dihydroxypropan-2-yl)oxy)ethyl)benzamide]
≤ 100 | CCOc1cc(-c2ccc(F)cc2)c(C2CC2)cc1CN1CCC2(CC1)CN(c1ccc(C(=O)NCCCS(=O)(=O)O)cc1)C(=O)N2 [Example 66, 3-(4-(8-((2-cyclopropyl-5-ethoxy-4′-fluoro-[1,1′-biphenyl]-4-yl)methyl)-2-oxo-1,3,8-triazaspiro[4.5]decan-3-yl)benzamido)propane-1-sulfonic acid]
≤ 100 | CCOc1cc(-c2ccc(F)cc2)c(C2CC2)cc1CN1CCC2(CC1)CN(c1ccc(C(=O)NC[C@H](O)[C@@H](O)[C@H](O)[C@H](O)CO)cc1)C(=O)O2 [Example 60, 4-(8-((2-cyclopropyl-5-ethoxy-4′-fluoro-[1,1′-biphenyl]-4-yl)methyl)-2-oxo-1-oxa-3,8-diazaspiro[4.5]decan-3-yl)-N-((2S,3R,4R,5R)-2,3,4,5,6-pentahydroxyhexyl)benzamide]
≤ 100 | CCOc1cc(-c2ccc(F)cc2)c(C2CC2)cc1CN1CCC2(CC1)CN(c1ccc(C(=O)NCCCS(=O)(=O)O)cc1)C(=O)O2 [Example 63, 3-(4-(8-((2-cyclopropyl-5-ethoxy-4′-fluoro-[1,1′-biphenyl]-4-yl)methyl)-2-oxo-1-oxa-3,8-diazaspiro[4.5]decan-3-yl)benzamido)propane-1-sulfonic acid]
≤ 100 | CCOc1cc(S(C)(=O)=O)c(C2CC2)cc1CN1CCC2(CC1)CN(c1ccc(S(=O)(=O)N(Cc3ccc(OC)cc3)Cc3ccc(OC)cc3)cc1)C(=O)N2 [compound 86, 4-[8-[(5-cyclopropyl-2-ethoxy-4-methylsulfonyl-phenyl)methyl]-2-oxo-1,3,8-triazaspiro[4.5]decan-3-yl]-N,N-bis[(4-methoxyphenyl)methyl]benzenesulfonamide]
